The text below walks through data of paper PMC10599993, “The PTPN2/PTPN1 inhibitor ABBV-CLS-484 unleashes potent anti-tumour immunity” (Nature, 2023).

Usually IC50 stands for the concentration that inhibits the measured activity by half.

The target of one test is T1, PTPN1 (Homo sapiens, UniProt P18031).
T1 construct: full-length recombinant
Kind of test: mobility shift enzyme assay with labelled insulin receptor phosphopeptide. It counts as biochemical.

Another test addresses T2, PTPN2 (Homo sapiens, UniProt P17706).
T2 construct: full-length recombinant
The description is as above. In kind it is biochemical.

T1 sequence (P18031 whole entry): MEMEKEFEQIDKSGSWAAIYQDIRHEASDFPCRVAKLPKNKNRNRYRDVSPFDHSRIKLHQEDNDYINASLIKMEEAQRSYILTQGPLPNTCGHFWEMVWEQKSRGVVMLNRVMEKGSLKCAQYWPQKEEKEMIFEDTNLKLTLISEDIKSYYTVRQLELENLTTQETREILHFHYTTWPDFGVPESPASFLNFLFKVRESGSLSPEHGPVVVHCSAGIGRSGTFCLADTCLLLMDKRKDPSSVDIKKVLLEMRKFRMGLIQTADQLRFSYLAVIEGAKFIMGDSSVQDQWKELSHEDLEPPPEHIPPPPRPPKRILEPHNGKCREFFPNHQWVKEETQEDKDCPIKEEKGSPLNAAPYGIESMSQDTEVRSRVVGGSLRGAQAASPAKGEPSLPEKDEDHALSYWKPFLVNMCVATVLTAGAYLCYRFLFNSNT
T2 sequence (P17706 whole entry): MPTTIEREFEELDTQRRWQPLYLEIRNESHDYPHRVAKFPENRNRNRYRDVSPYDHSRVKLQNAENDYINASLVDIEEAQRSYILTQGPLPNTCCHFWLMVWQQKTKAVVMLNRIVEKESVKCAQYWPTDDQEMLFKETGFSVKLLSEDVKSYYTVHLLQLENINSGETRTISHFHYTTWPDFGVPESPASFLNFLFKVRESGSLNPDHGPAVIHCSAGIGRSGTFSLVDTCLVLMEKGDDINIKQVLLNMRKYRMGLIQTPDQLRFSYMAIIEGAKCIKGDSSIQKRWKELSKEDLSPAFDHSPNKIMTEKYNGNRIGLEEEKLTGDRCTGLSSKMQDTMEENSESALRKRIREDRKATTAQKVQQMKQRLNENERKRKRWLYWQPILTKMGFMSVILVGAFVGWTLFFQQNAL

On to `O=C1CN(c2c(O)cc3ccc(NCC4CC4)cc3c2F)S(=O)(=O)N1` [A-650], for which the IC50 on PTPN1 is 2.8 nM; at PTPN2 it was 3.9 nM.
